Patent US20240062782A1, “NONLINEAR LIGHT ABSORPTION MATERIAL, RECORDING MEDIUM, METHOD FOR RECORDING INFORMATION, AND METHOD FOR READING INFORMATION” (Panasonic Intellectual Property Management Co., Ltd., priority 2021, published 2024)
Where two headings read alike, the source gives them in different places.

Legend:
Format in all cases: physicochemical
[1] = Measurement of molar absorption coefficient at 405 nm (JIS K0115:2004); settings: wavelength 405 nm; compound concentration 100 to 500 mmol/L in solvent
Description: The molar absorption coefficient of the compound A for light having a wavelength of 405 nm may be 100 mol^−1·L·cm^−1 or less, 10 mol^−1·L·cm^−1 or less, 1 mol^−1·L·cm^−1 or less, or 0.1 mol^−1·L·cm^−1 or less. The lower limit of the molar absorption coefficient of the compound A is not particularly limited and is, for example, 0.00001 mol^−1·L·cm^−1. The molar absorption coefficient can be measured by, for example, a method in accordance with the provision of Japanese Industrial Standards (JIS) K0115:2004. The measurement of molar absorption coefficient uses a light source that irradiates light with a photon density to hardly cause two-photon absorption by the compound A. Furthermore, in the measurement of molar absorption coefficient, the concentration of the compound A is adjusted to 100 mmol/L or more and 500 mmol/L or less. This concentration is very high compared to the concentration in a measurement test of the molar absorption coefficient of a light absorption peak. The molar absorption coefficient can be used as an index of one-photon absorption.
The compounds of Examples and Comparative Examples were measured for the molar absorption coefficient by a method in accordance with the provision of JIS K0115:2004. Specifically, first, as a measurement sample, a solution in which a compound was dissolved in a solvent was prepared. The concentration of the compound in the solution was appropriately adjusted within a range of 100 mmol/L or more and 500 mmol/L or less according to the absorbance at a wavelength of 405 nm of the compound as the target for measurement. Then, the absorption spectrum of the measurement sample was measured. The absorbance at a wavelength of 405 nm was read from the obtained spectrum. The molar absorption coefficient was calculated based on the concentration of the compound in the measurement sample and the optical path length of the cell used for the measurement. As described above, the molar absorption coefficients of the compounds of Examples 1 and 2 and the compounds of Comparative Examples 1 and 4 to 6 were measured.

[2] = Measurement of two-photon absorption cross-section by the Z-scan method, light of 405 nm; settings: light of wavelength 405 nm; for Two-photon absorption cross-section σ: titanium sapphire pulsed laser second harmonic, 80 fs, 1 kHz
Description: The two-photon absorption cross-section of the compound A for light having a wavelength of 405 nm may be higher than 1 GM or 10 GM or more. The upper limit of the two-photon absorption cross-section of the compound A is not particularly limited and is, for example, 1000 GM. The two-photon absorption cross-section can be measured by, for example, the Z-scan method described in J. Opt. Soc. Am. B, 2003, Vol. 20, p. 529. The Z-scan method is broadly used as a method for measuring a nonlinear optical constant. In the Z-scan method, a measurement sample is moved along the irradiation direction of a laser beam near the focal point where the beam is focused. On this occasion, the change in the amount of light permeated through the measurement sample is recorded. In the Z-scan method, the power density of incident light changes depending on the position of the measurement sample. Accordingly, when the measurement sample performs nonlinear light absorption, if the measurement sample is located near the focal point of the laser beam, the amount of the transmitted light is attenuated. The two-photon absorption cross-section can be calculated by fitting the change of the amount of transmitted light to a theoretical curve predicted by the intensity of incident light, the thickness of the measurement sample, the concentration of the compound A in the measurement sample, and so on.
The compounds of Examples and Comparative Examples were measured for the two-photon absorption cross-section for light having a wavelength of 405 nm. The measurement of the two-photon absorption cross-section was performed using the Z-scan method described in J. Opt. Soc. Am. B, 2003, Vol. 20, p. 529. As the light source for measuring the two-photon absorption cross-section, a titanium sapphire pulsed laser was used. Specifically, each sample was irradiated with the second harmonic of the titanium sapphire pulsed laser. The pulse width of the laser was 80 fs. The repetition frequency of the laser was 1 kHz. The average power of the laser was changed within a range of 0.01 mW or more and 0.08 mW or less. The light from the laser was light having a wavelength of 405 nm. […] As described above, the two-photon absorption cross-sections of the compounds of Examples 1 and 2 and the compounds of Comparative Examples 1 and 4 to 6 were measured.

[3] = Measurement of fluorescence internal quantum yield (absolute PL quantum yield measuring apparatus); settings: for Fluorescence quantum yield Φf: in chloroform or tetrahydrofuran, excitation at one-photon absorption peak, measured 350-650 nm; for Fluorescence property: stated in words
Description: The compound A also tends to emit fluorescent light. The wavelength of fluorescent light emitted by the compound A may be 405 nm or more and 660 nm or less and, in some cases, may be 300 nm or more and 650 nm or less. The quantum yield Φf of fluorescence in the compound A may be 0.05 or more, 0.1 or more, or 0.5 or more. The upper limit of the quantum yield Φf of fluorescence of the compound A is not particularly limited and is, for example, 0.99. In the present specification, the “quantum yield” specifically means internal quantum yield. The quantum yield of fluorescence can be measured by, for example, a commercially available absolute PL quantum yield measuring apparatus.
The compounds of Examples and Comparative Examples were measured for fluorescence internal quantum yield. The measurement sample was prepared by dissolving a compound in a chloroform (CLF) solvent or a tetrahydrofuran (THF) solvent. In the measurement, an absolute PL quantum yield measuring apparatus (C9920-02, manufactured by Hamamatsu Photonics K.K.) was used. The excitation wavelength was set to the peak wavelength of the one-photon absorption of the compound. The measurement wavelength was appropriately adjusted within a range of 350 nm or more and 650 nm or less so as not to overlap with the absorption wavelength band of the compound. As a reference, the solvent used for dissolving the compound was used. As described above, the fluorescence quantum yields of the compounds of Examples 1 and 2 and the compounds of Comparative Examples 1 and 4 to 6 were measured.

Solubility in chloroform = settings: chloroform as solvent
Description: Unsubstituted truxene is a hydrocarbon compound that is nonpolar and has a high planarity. Unsubstituted truxene corresponds to the compound of the above formula (1) in which R^1 to R^6 are hydrogen atoms. In the present specification, the unsubstituted truxene may be simply called truxene. In truxene, […] stacking of the molecules is likely to occur, and the solubility in a solvent or resin monomer tends to be low. For example, when chloroform is used as the solvent, the solubility of truxene is about several mmol/L. When the concentration of truxene in a material is high, truxene molecules come close to each other and are assembled in various forms. Consequently, multiple new levels are formed at positions with energies lower than the lowest one-photon-allowed state of truxene itself. Accordingly, tailing of a peak derived from one-photon absorption can be verified by measuring the one-photon absorption spectrum of the material including truxene at a high concentration. In contrast, in the compound A represented by the formula (1) in which R^1 to R^6 are hydrocarbon groups, it tends to suppress the formation of assembly of compound molecules without substantially changing the size of the π C electron conjugated system of truxene. […]

[4] = Solubility in the solvent when preparing samples for optical characteristics; settings: measurement solvent; sample could not be prepared
Description: (§1) The compounds of Examples and Comparative Examples were measured for optical characteristics by the following methods. […] Measurement of two-photon absorption cross-section

[5] = Stability for light having a wavelength in a short wavelength region; settings: short wavelength region (390-420 nm); optical characteristics could not be measured
Description: as §1

Molar absorption coefficient ε [1] [L/mol/cm]	Two-photon absorption cross-section σ [2] [GM]	Fluorescence quantum yield Φf [3]	Structure (SMILES)	further results
2730	23000		C(#Cc1c(C#Cc2ccccc2)c(C#Cc2ccccc2)c(C#Cc2ccccc2)c(C#Cc2ccccc2)c1C#Cc1ccccc1)c1ccccc1 [Comparative Example 4, Hexakis(phenylethynyl)benzene]	
0.04	40	0.1	CC1(C)c2ccccc2-c2c1c1c(c3c2C(C)(C)c2ccccc2-3)C(C)(C)c2ccccc2-1 [Example 1, 10,15-dihydro-5,5,10,10,15,15-hexamethyl-5H-diindeno[1,2-a:1′,2′-c]fluorene]	Fluorescence property [3]: had a fluorescence property; solubility (Solubility in chloroform; organic solvent or mixture, read-out: Solubility): ≥ 100 mM
35	570	0	COc1cc(-c2ccc(-c3ccc(C(=O)c4ccc(OCCOCCOC(C)=O)c(OCCOCCOC(C)=O)c4)cc3)c(OC)c2)ccc1-c1ccc(C(=O)c2ccc(OCCOCCOC(C)=O)c(OCCOCCOC(C)=O)c2)cc1 [Comparative Example 5]	
70	380	0.3	OC(C#Cc1ccc(N(c2ccc(C#CC(O)(c3ccccc3)c3ccccc3)cc2)c2ccc(C#CC(O)(c3ccccc3)c3ccccc3)cc2)cc1)(c1ccccc1)c1ccccc1 [Comparative Example 6]	
24		0.1	c1ccc2c(c1)Cc1c-2c2c(c3c1-c1ccccc1C3)-c1ccccc1C2 [Comparative Example 1, 10,15-dihydro-5H-diindeno[1,2-a:1′,2′-c]fluorene]	Ratio σ/ε ([2]; σ in GM over ε in mol^−1·L·cm^−1): 8; solubility (Solubility in chloroform): about several
			O=c1c2ccccc2c2c1c1c3ccccc3c(=O)c1c1c3ccccc3c(=O)c21 [Comparative Example 2, 5H-diindeno[1,2-a:1′,2′-c]fluorene-5,10,15-trione]	Solubility in the solvent (sample for measuring optical characteristics) [4]: low solubility
0.08	43	0.1	CCC1(CC)c2ccccc2-c2c1c1c(c3c2C(CC)(CC)c2ccccc2-3)C(CC)(CC)c2ccccc2-1 [Example 2, 10,15-dihydro-5,5,10,10,15,15-hexaethyl-5H-diindeno[1,2-a:1′,2′-c]fluorene]	Fluorescence property [3]: had a fluorescence property
			c1ccc2c(c1)[nH]c1c2c2[nH]c3ccccc3c2c2[nH]c3ccccc3c12 [Comparative Example 3, 10,15-dihydro-5H-5,10,15-triaza-diindeno[1,2-a:1′,2′-c]fluorene]	Stability for light having a wavelength in a short wavelength region [5]: low stability
